Experimental data published in patent publication EP1816121B1, “9-Chloro-15-deoxyprostaglandin derivatives, process for their preparation and their use as medicaments” (Bayer Schering Pharma Aktiengesellschaft, priority 2005, dated 2007).

Assays:
[1] = test system: Human monocyte derived dendritic cells; test: Inhibition of human monocyte derived dendritic cell cytokine release, IL-12; type: cell-based; conditions: 18 h
Description: (§1) Following stimulation through the toll-like receptors (TLR) DCs express and release proinflammatory cytokines and chemokines and may induce activation and proliferation of naïve T cells. The binding of an EP2 agonist to the DC EP receptor inhibits TLR4 ligand (LPS) stimulated Interleukin 12 (IL-12) release. […] Therefore an EP2 agonist skews the CD4 T cell differentiation away from the Th- lineage.
IL-12 is a 75 kDa glycoprotein heterodimer (p70) composed of two genetically unrelated subunits linked by a disulfide bond. Enzyme linked immuno sorbant assays (ELISA) based on antibodies specific to IL-12 p70 are commercially available. Standards and samples are pipetted into the wells of a microplate. An antibody specific to human IL-12 is added to the wells. A substrate is added to the wells and color develops in proportion to the amount of IL-12 bound. The intensity of the color is measured.
(§2) Human monocyte derived dendritic cells are isolated from human donors using a Ficoll density gradient and residual erythrocytes removed by selective lysis. CD14 MicroBeads are used for separation of human cells based on the expression of the CD14 antigen. The dendritic cells are cultured at approximately 1.5 x 10^6 cells per ml in RPMI 1640 with fetal bovine serum, 200 ng/ml GM-CSF (Leukine) and 10 ng/ml IL-4. The cells grow-for a period of 3 days and then the media is changed. 10ng/ml LPS is used to activate the cells. 1µM of substance (EP2 agonist) and 1µM of PGE2 are added during the LPS stimulation. Cells are incubated for approximately 18 hr at 37C. IL-12 and II-10 released during activation is measured by ELISA.

[2] = test system: Human monocyte derived dendritic cells; test: Human monocyte derived dendritic cell cytokine release, IL-10; type: cell-based; conditions: 18 h
Description: as §1
IL-10 initially designated cytokine synthesis inhibitory factor (CSIF), was originally identified as a product of Th-2 clones that suppressed the production of cytokines by Th-1 clones responding to stimulation by antigen in the presence of antigen-presenting cells. IL-10 is a dimer composed of two identical 160 amino acid subunits. Enzyme linked immuno sorbant assays (ELISA) based on antibodies specific to IL-10 are commercially available. Standards and samples are pipetted into the wells of a microplate. An antibody specific to human IL-10 is added to the wells. A substrate is added to the wells and color develops in proportion to the amount of IL-10 bound. The intensity of the color is measured.
as §2

[3] = Donor 1, read-out: % inhibition below untreated, LPS- stimulated control
[4] = Donor 2, read-out: % inhibition below untreated, LPS- stimulated control
[5] = Donor 3, read-out: % inhibition below untreated, LPS- stimulated control

## CCCCC[C@H](O)/C=C/[C@H]1[C@H](O)CC(=O)[C@@H]1C/C=C\CCCC(=O)O [PGE2, prostaglandin E2]
[1]; [3]
  inhibition at 1 µM: 78%
[1]; [4]
  inhibition at 1 µM: 44%
[1]; [5]
  inhibition at 1 µM: 84%
[1]; Donor 4, read-out: % inhibition below untreated, LPS- stimulated control
  inhibition at 1 µM: 29%
[2]; [3]
  inhibition at 1 µM: 103%
[2]; [4]
  inhibition at 1 µM: 134%
[2]; [5]
  inhibition at 1 µM: 107%
